# Laboratory results taken from ChEMBL document CHEMBL1153384, “Synthesis, antimalarial activity, and preclinical pharmacology of a novel series of 4'-fluoro and 4'-chloro analogues of amodiaquine. Identification of a suitable "back-up" compound for N-tert-butyl isoquine” (J Med Chem, 2009).
# Legend:
# [1] = test system: Plasmodium falciparum; test: Antimalarial activity against chloroquine-resistant Plasmodium falciparum TM6; format: functional, organism-based
# [2] = test system: Plasmodium falciparum; test: Antimalarial activity against chloroquine-sensitive Plasmodium falciparum HB3; format: functional, organism-based
# [3] = test system: Plasmodium falciparum; test: Antimalarial activity against chloroquine-sensitive Plasmodium falciparum 3D7; format: functional, organism-based
# [4] = test system: Plasmodium yoelii; test: Antimalarial activity as minimal concentration for parasite elimination at day 23 against Plasmodium yoelii 17X intravenously inoculated CD1 mice (Mus musculus) dosed 1 hrs post infection then daily for 4 days
# [5] = Oral bioavailability in rat; format: ADME, organism-based; conditions: in vivo
# [6] = Clearance in iv dosed rat; format: ADME, organism-based; conditions: in vivo
# [7] = Oral bioavailability in mouse; format: ADME, organism-based; conditions: in vivo
# [8] = test system: Plasmodium yoelii; test: Antimalarial activity as reduced parasitaemia against Plasmodium yoelii 17X infected CD1 mice (Mus musculus) perorally dosed daily for 4 days; format: functional; conditions: po, 96 h
# [9] = Clearance in iv dosed mouse; format: ADME, organism-based; conditions: in vivo
# [10] = Partition coefficient, log P of the compound; format: physicochemical; conditions: octanol/water
# [11] = biological target: β-hematin formation (no protein target); test: Inhibition of beta-hematin formation as molar equivalent relative to hemin causing blockade in BHIA
# [12] = test system: Plasmodium yoelii; test: In vivo antimalarial activity against Plasmodium yoelii NS peroral dosage; format: functional; conditions: po
# [13] = biological target: Cytochrome P450 2D6 (Homo sapiens, UniProt P10635); test: Inhibition of human CYP2D6; format: ADME
# Cytochrome P450 2D6, sequence (P10635 whole entry): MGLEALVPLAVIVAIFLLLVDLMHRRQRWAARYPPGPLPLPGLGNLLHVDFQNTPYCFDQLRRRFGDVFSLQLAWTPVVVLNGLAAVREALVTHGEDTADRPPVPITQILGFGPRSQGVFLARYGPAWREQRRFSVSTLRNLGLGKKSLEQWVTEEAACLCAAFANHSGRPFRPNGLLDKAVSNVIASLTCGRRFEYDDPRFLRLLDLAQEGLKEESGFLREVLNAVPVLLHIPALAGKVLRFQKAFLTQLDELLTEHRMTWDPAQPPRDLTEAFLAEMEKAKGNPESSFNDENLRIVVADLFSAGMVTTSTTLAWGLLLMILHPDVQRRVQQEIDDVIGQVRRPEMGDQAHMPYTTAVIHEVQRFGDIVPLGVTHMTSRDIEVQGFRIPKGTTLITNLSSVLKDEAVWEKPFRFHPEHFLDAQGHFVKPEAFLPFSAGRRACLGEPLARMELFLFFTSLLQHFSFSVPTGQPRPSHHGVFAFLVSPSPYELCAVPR
# [14] = biological target: T1, Cytochrome P450 3A4 (Homo sapiens, UniProt P08684); test: Inhibition of human CYP3A4 using PPR substrate; format: ADME
# T1 sequence (P08684 whole entry): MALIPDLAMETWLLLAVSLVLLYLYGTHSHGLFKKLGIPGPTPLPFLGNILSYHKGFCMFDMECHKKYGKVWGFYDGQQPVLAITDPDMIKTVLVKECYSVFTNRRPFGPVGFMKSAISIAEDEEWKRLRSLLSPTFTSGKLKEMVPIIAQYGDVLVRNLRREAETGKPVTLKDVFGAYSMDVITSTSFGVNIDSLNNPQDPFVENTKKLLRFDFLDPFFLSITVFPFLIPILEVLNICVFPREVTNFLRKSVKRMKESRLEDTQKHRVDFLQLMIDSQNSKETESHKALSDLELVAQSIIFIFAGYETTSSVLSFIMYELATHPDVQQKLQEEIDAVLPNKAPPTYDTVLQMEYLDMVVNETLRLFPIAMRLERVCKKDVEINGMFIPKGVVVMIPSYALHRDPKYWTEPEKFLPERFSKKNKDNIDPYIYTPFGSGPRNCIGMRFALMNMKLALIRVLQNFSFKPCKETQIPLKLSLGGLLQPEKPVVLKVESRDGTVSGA
# [15] = biological target: T2, Cytochrome P450 2C8 (Homo sapiens, UniProt P10632); test: Inhibition of human CYP2C8; format: ADME
# T2 sequence (P10632 whole entry): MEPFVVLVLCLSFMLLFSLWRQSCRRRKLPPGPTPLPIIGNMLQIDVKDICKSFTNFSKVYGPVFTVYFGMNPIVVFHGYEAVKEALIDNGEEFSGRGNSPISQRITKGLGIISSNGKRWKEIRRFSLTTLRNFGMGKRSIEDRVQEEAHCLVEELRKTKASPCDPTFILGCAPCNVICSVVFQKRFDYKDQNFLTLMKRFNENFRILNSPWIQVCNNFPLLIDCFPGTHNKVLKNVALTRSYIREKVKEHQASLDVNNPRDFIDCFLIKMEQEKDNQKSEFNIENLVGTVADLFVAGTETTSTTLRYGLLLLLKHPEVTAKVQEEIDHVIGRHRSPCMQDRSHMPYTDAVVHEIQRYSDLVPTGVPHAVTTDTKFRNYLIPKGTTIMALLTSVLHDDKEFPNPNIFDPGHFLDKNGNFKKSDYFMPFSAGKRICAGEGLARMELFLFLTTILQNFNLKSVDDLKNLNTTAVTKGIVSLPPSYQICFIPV
# [16] = biological target: T1, Cytochrome P450 3A4; test: Inhibition of human CYP3A4 using DEF substrate
# [17] = biological target: Cytochrome P450 2C9 (Homo sapiens, UniProt P11712); test: Inhibition of human CYP2C9; format: ADME
# Cytochrome P450 2C9, sequence (P11712 whole entry): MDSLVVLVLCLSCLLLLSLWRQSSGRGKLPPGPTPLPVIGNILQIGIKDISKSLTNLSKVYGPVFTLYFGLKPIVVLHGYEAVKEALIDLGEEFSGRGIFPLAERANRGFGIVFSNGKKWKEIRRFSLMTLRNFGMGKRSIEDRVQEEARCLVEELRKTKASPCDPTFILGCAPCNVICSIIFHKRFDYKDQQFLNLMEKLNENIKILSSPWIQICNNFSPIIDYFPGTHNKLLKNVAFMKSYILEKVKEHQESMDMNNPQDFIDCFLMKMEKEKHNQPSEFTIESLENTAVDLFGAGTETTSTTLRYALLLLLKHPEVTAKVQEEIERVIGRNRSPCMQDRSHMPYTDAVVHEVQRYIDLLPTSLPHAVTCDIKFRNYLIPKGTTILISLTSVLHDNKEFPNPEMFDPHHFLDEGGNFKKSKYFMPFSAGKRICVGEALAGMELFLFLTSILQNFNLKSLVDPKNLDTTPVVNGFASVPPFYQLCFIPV
# [18] = biological target: Cytochrome P450 2C19 (Homo sapiens, UniProt P33261); test: Inhibition of human CYP2C19; format: ADME
# Cytochrome P450 2C19, sequence (P33261 whole entry): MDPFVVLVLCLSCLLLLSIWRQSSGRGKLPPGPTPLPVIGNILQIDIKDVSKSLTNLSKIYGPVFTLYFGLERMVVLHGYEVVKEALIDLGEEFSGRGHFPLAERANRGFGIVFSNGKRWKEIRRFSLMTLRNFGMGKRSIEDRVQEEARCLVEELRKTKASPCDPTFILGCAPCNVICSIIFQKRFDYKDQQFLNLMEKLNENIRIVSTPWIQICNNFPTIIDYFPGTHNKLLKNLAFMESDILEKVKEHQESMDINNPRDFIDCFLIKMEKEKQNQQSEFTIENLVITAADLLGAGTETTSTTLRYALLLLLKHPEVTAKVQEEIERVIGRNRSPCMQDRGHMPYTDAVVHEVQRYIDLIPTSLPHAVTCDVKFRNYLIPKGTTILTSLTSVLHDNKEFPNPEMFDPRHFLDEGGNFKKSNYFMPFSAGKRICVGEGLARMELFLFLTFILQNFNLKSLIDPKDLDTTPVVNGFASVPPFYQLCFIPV
# [19] = biological target: T3, Cytochrome P450 1A2 (Homo sapiens, UniProt P05177); test: Inhibition of human CYP1A2; format: ADME
# T3 sequence (P05177 whole entry): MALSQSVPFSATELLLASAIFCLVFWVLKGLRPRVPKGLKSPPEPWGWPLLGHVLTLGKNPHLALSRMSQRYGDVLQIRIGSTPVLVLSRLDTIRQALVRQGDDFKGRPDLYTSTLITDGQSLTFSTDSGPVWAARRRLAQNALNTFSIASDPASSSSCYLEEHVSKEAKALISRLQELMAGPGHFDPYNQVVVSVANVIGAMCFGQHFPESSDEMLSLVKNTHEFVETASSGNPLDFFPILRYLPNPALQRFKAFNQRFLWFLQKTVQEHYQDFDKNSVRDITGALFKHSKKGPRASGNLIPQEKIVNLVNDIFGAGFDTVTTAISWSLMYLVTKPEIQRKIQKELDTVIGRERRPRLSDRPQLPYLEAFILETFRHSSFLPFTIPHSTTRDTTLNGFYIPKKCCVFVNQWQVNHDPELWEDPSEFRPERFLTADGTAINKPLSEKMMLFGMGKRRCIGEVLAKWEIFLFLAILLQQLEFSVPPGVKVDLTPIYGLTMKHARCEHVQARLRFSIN
# [20] = test system: Heme; test: Binding affinity to heme assessed as binding constant for stepwise binding of 2 molecules of heme to 1 equivalent of drug in presence of 40% DMSO by UV-visible spectroscopy
# [21] = test system: Heme; test: Binding affinity to heme assessed as binding constant for stepwise binding of 2 equivalent of drug to 1 molecule of heme in presence of 40% DMSO by UV-visible spectroscopy
# [22] = test system: Heme
# [23] = test system: Heme; remark: listed apart in the source
# [24] = biological target: T1, Cytochrome P450 3A4; test: Inhibition of human CYP3A4 using DEF substrate; format: ADME
compound,measurement,setting,value
CCN(CC)Cc1cc(Nc2ccnc3cc(Cl)ccc23)ccc1Cl,IC50,[1],10.2 nM
same,IC50,[2],12.3 nM
same,IC50,[3],30.4 nM
CCN1CCN(Cc2cc(Nc3ccnc4cc(Cl)ccc34)ccc2Cl)CC1,IC50,[1],10.3 nM
same,IC50,[2],9.6 nM
same,IC50,[3],39.7 nM
CCNCc1ccc(Nc2ccnc3cc(Cl)ccc23)cc1O [DESETHYL ISOQUINE],Activity,[4],>40 mg/kg
same,bioavailability,[5],60%
same,clearance,[6],61.5 mL/min/kg
same,bioavailability,[7],100%
same,ED50,[8],5.5 mg/kg
same,ED90,[8],8 mg/kg
same,clearance,[9],43.5 mL/min/kg
O=C(NCc1cc([N+](=O)[O-])ccc1F)c1ncc[nH]1,IC50,[1],5 nM
same,IC50,[2],10.1 nM
CC(C)N1CCN(Cc2cc(Nc3ccnc4cc(Cl)ccc34)ccc2Cl)CC1,IC50,[1],6.4 nM
same,IC50,[2],9.1 nM
same,logP,[10],5.14
same,IC50,[11],1.66 molar ratio
CCN(CC)Cc1ccc(Nc2ccnc3cc(Cl)ccc23)cc1O [ISOQUINE],ED50,[12],1.6 mg/kg
same,IC50,[13],7000 nM
same,IC50,[14],Active
same,IC50,[15],13000 nM
same,IC50,[16],> 100000 nM
same,Activity,[4],>40 mg/kg
same,bioavailability,[5],17%
same,clearance,[6],89.2 mL/min/kg
same,bioavailability,[7],21%
same,IC50,[17],75000 nM
same,IC50,[18],39000 nM
same,ED50,[8],5.2 mg/kg
same,ED90,[8],7.6 mg/kg
same,IC50,[3],7.8 nM
same,clearance,[9],219 mL/min/kg
same,IC50,[19],23000 nM
Clc1ccc2c(Nc3ccc(Cl)c(CN4CCCCC4)c3)ccnc2c1,IC50,[1],9.4 nM
same,IC50,[2],12.3 nM
same,IC50,[3],25.7 nM
OC(c1cc(C(F)(F)F)nc2c(C(F)(F)F)cccc12)C1CCCCN1 (stereo unspecified),log Ks,[20],3.17
same,log Ks,[21],3.84
c1ccncc1,log Ks,[20],0.18
same,log Ks,[21],2.5
same,log Ks,[22],2.24
same,log Ks,[23],2.54
Clc1ccc2c(Nc3ccc(Cl)c(CN4CCN(c5ccccn5)CC4)c3)ccnc2c1,IC50,[1],500 nM
same,IC50,[2],485 nM
same,IC50,[3],27.2 nM
CCCN(CCC)Cc1cc(Nc2ccnc3cc(Cl)ccc23)ccc1F,IC50,[3],85.2 nM
CN1CCN(Cc2cc(Nc3ccnc4cc(Cl)ccc34)ccc2F)CC1,IC50,[3],35.1 nM
C=C[C@H]1CN2CC[C@H]1C[C@H]2[C@H](O)c1ccnc2ccc(OC)cc12,log Ks,[20],4.1
same,log Ks,[21],4.4
CCNCc1cc(Nc2ccnc3cc(Cl)ccc23)ccc1O [DESETHYL AMODIAQUINE],IC50,[13],6400 nM
same,IC50,[14]; read-out: IC50,> 100000 nM
same,IC50,[15],20000 nM
same,IC50,[24],24000 nM
same,IC50,[17],58000 nM
same,IC50,[18],54000 nM
same,IC50,[19],28000 nM
CN1CCN(Cc2cc(Nc3ccnc4cc(Cl)ccc34)ccc2Cl)CC1,IC50,[1],24.4 nM
same,IC50,[2],54.5 nM
same,IC50,[3],86.8 nM
